For 73 molecules, Kd results are on record in patent publication US20260373266A1, “PROTEIN DEGRADERS AND USES THEREOF” (KYMERA THERAPEUTICS, INC., priority 2022, published 2026).

pKd: −log10 of the molar value. Bounds are passed on as bounds.

The target of one assay is T1, DCAF1 WD40 domain (residues 1077-1390) (Homo sapiens, UniProt Q9Y4B6).
T1 construct: DCAF1 WD40 domain (residues 1077-1390)
T1 sequence (Q9Y4B6 1077-1390): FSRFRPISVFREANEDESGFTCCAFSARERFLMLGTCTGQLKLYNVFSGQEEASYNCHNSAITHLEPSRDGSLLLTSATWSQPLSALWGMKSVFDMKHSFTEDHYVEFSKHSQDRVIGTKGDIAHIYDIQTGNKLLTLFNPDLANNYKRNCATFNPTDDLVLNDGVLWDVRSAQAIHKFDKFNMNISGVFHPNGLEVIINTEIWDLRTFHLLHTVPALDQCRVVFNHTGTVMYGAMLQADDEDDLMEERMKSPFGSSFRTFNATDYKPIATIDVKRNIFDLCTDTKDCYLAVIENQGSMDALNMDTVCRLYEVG
Kind of assay: DCAF1 binding assay by SPR (Biacore 8K+), DCAF1-3 KD. To be noted: 25 °C, read-out: DCAF1-3 SPR (KD). In general terms: Surface plasmon resonance follows binding to a sensor surface in real time, without labels.
Take `Cc1c(F)ccc(F)c1-c1c(C(=O)N[C@@H](CC(N)=O)c2cccc(Cl)c2)c[nH]c1C(=O)COCCOCCOCCOCCOCCOCCN` [I-802]: the pKd (in general, the Kd on a negative log10 scale, so that one unit is a factor of ten) is > 5.00.
With `Cc1sc2c(c1C)C(c1ccc(Cl)cc1)=N[C@@H](CC(=O)NCCOCCOCCOCCOCCn1cc(C(=O)N[C@@H](CC(N)=O)c3cccc(Cl)c3)c(-c3ccccc3F)n1)c1nnc(C)n1-2` [I-490], the negative logarithm of the Kd (pKd) was 4.00 to 5.00.
For the molecule `COc1ccc(N2CCC[C@@H](Nc3cc(N4CCOCC4)ncn3)C2)cc1` [I-10], the pKd was < 3.70.
For `N#Cc1nccc(CN2CCC[C@@H](Nc3cc(N4CCOCC4)ccn3)C2)n1` [I-476], the pKd was < 3.70.
Regarding `c1cnc2c(N3CCC[C@@H](Nc4nccc(N5CCOCC5)n4)C3)cccc2c1` [I-30], the negative logarithm of the Kd (pKd) was 3.70 to 4.00.
`NCCc1ccc(N2CCC[C@@H](Nc3cc(N4CCOCC4)ccn3)C2)cc1` [I-871]: the pKd is < 3.70.
For `Cc1sc2c(c1C)C(c1ccc(Cl)cc1)=N[C@@H](CC(=O)N(C)CCOCCOCCOCCOCCOCC(=O)c1[nH]cc(C(=O)N[C@@H](CC(N)=O)c3cccc(Cl)c3)c1-c1ccccc1F)c1nnc(C)n1-2` [I-900], the negative-log Kd (pKd) is > 5.00.
Still for that read-out and setting: to `Fc1cccc(N2CCC[C@@H](N(CC3CC3)c3nccc(N4CCOCC4)n3)C2)c1` [I-41] belongs 3.70 to 4.00.
With `OC[C@@H]1CC[C@@H](Nc2cc(N3CCCCC3)ccn2)CN1c1cccc(F)c1` [I-995], the pKd was 4.00 to 5.00.
On the same count and under the same terms, to `O=C1Cc2cnc(N3CCC[C@@H](Nc4cc(N5CCOCC5)ccn4)C3)cc2N1` [I-434] belongs < 3.70.
On to `c1ccc2c(N3CCC[C@@H](Nc4cc(N5CCOCC5)ccn4)C3)noc2c1` [I-73], for which the pKd was 3.70 to 4.00.
Still for that read-out and setting: to `C=CC(=O)N1CC2(CCN(c3ccnc(N[C@@H]4CCCN(c5cccc(F)c5)C4)c3)CC2)C1` [I-465] belongs < 3.70; to `C[C@H](C(N)=O)[C@H](NC(=O)c1c[nH]nc1-c1ccccc1F)c1cccc(Cl)c1` [I-147], 4.00 to 5.00; to `C[C@@H]1[C@H](O)CCCN1c1ccnc(N2CC[C@@H]3[C@H]2CCCN3c2cccc(F)c2)c1` [I-832], > 5.00.
Still for that read-out and setting: to `Cc1c(F)ccc(F)c1-c1c(C(=O)N[C@@H](CC(N)=O)c2cccc(Cl)c2)c[nH]c1S(C)(=O)=O` [I-882] belongs > 5.00.
Take `O[C@H]1CC[C@@H](Nc2cc(N3CCCCC3)ccn2)C[C@@H]1c1ccccc1` [I-984]: the pKd is 4.00 to 5.00.
Still for that read-out and setting: the result for `Fc1cccc(N2CCC[C@H]3[C@@H]2CCCN3c2cc(N3CCCCC3)ccn2)c1` [I-720] reads > 5.00; that for `COc1ncc2cc[nH]c2c1N1CCC[C@@H](Nc2cc(N3CCOCC3)ccn2)C1` [I-859], 4.00 to 5.00; that for `NC(=O)C[C@H](NC(=O)c1cn[nH]c1-c1ccccc1F)c1ccc(C(N)=O)cc1` [I-354], < 3.70.
In the case of `Fc1cccc(N2CCC[C@]3(CCc4cnc(N5CCOCC5)cc4N3)C2)c1` [I-214], the pKd is < 3.70.
The same measure, in the same setting: the result for `O=C(N[C@H](c1cccc(Cl)c1)[C@H]1CCCNC1=O)c1c[nH]nc1-c1ccccc1F` [I-194] reads < 3.70; that for `C=CC(=O)N1CCC(N(C)c2ccnc(N[C@@H]3CCCN(c4cccc(F)c4)C3)c2)C1` (stereo partly shown) [I-458], < 3.70.
On to `Fc1cccc(N2CCC[C@@H](N(Cc3ccccc3)c3nccc(N4CCOCC4)n3)C2)c1` [I-34], for which the pKd was < 3.70.
The same measure, in the same setting: the result for `CS(=O)(=O)Cc1ccc(F)c(-c2[nH]ncc2C(=O)N[C@H](CC(N)=O)c2cccc(Cl)c2)c1` [I-532] reads < 3.70; that for `Fc1cccc(N2CCC[C@@H](Nc3cc(N4CCC5CCC4C5)ccn3)C2)c1` (stereo partly shown) [I-640], 4.00 to 5.00.
Still for that read-out and setting: the result for `C[C@@H](C(N)=O)[C@H](NC(=O)c1c[nH]nc1-c1ccccc1F)c1cccc(Cl)c1` [I-148] reads > 5.00; that for `O=C1NCCN1Cc1cccc(N2CCC[C@H]3[C@@H]2CCN3c2cc(N3CCCCC3)ccn2)c1` [I-960], > 5.00; that for `Fc1cccc(N2CCC[C@@H](Nc3ccnc(N4CCOCC4)n3)C2)c1` [I-321], < 3.70.
Same read-out and setting: to `NCCc1cccc(N2CCC[C@@H](Nc3cc(N4CCOCC4)ccn3)C2)c1` [I-865] belongs < 3.70.
On to `COc1ccccc1N1CCC[C@@H](Nc2cc(N3CCOCC3)ncn2)C1` [I-15], for which the negative-log Kd (pKd) was < 3.70.
Turning to `c1cnc2c(N3CCC[C@@H](Nc4cc(N5CCOCC5)ccn4)C3)cnn2c1` [I-417], the pKd is < 3.70.
With `c1csc(-c2ccc(N3CCC[C@@H](Nc4cc(N5CCOCC5)ccn4)C3)cc2)c1` [I-695], the negative logarithm of the Kd (pKd) was 4.00 to 5.00.
On the same count and under the same terms, to `Cc1sc2c(c1C)C(c1ccc(Cl)cc1)=N[C@@H](CC(=O)NCCOCCOCCOCCOCC(=O)c1[nH]cc(C(=O)N[C@@H](CC(N)=O)c3cccc(Cl)c3)c1-c1ccccc1F)c1nnc(C)n1-2` [I-896] belongs > 5.00.
On the same count and under the same terms, to `Oc1ccc(N2CCC[C@@H](Nc3cc(N4CCCCC4)ccn3)C2)cc1F` [I-716] belongs 4.00 to 5.00; to `Cc1ccc(N2CCC[C@@H](Nc3cc(N4CCOCC4)ncn3)C2)cc1` [I-8], 3.70 to 4.00; to `Oc1ccc(N2CCC[C@@H](Nc3cc(N4CCOCC4)ncn3)C2)cc1` [I-14], 3.70 to 4.00.
Same read-out and setting: to `N#Cc1ccccc1N1CCC[C@@H](Nc2cc(N3CCOCC3)ccn2)C1` [I-770] belongs 4.00 to 5.00.
Turning to `Cc1c(F)ccc(F)c1-c1[nH]ncc1C(=O)N[C@@H](c1cccc(Cl)c1)[C@@H]1CCCS1(=O)=O` [I-1002], the pKd was > 5.00.
Take `C=CC(=O)NCCCN1CCN(c2ccnc(N[C@@H]3CCCN(c4cccc(F)c4)C3)c2)CC1` [I-621]: the pKd was 3.70 to 4.00.
Still for that read-out and setting: to `Fc1cccc(N2CCC[C@@H](Nc3cc(N4CCOCC4)[nH]n3)C2)c1` [I-329] belongs < 3.70.
On to `NC(=O)CC(NC(=O)c1cn[nH]c1-c1c(F)cc(Cl)cc1F)c1ccc(F)c(Cl)c1` (stereo not shown) [I-1049], for which the pKd was > 5.00.
On to `NC(=O)Cc1cccc(N2CCC[C@@H](Nc3cc(N4CCOCC4)ccn3)C2)c1` [I-776], for which the negative logarithm of the Kd (pKd) is < 3.70.
The same measure, in the same setting: the result for `NC(=O)[C@H]1CC[C@@H](Nc2cc(N3CCCCC3)ccn2)CN1c1cccc(F)c1` [I-1025] reads 4.00 to 5.00; that for `O=C1[C@H](Nc2cc(N3CCOCC3)ccn2)CCCN1c1cccc(F)c1` [I-281], < 3.70; that for `c1ccc(CN2CCc3ncnc(N4CCC[C@@H](Nc5cc(N6CCOCC6)ccn5)C4)c3C2)cc1` [I-870], 4.00 to 5.00.
As for `C=CC(=O)n1cc(-c2n[nH]cc2C(=O)N[C@@H](CC(N)=O)c2cccc(Cl)c2)cn1` [I-472], the pKd was < 3.70.
Take `NC[C@@H]1C[C@H](Nc2cc(N3CCCCC3)ccn2)CN(c2cccc(F)c2)C1` [I-1042]: the negative logarithm of the Kd (pKd) was 4.00 to 5.00.
In the case of `O=c1[nH]cc(N2CCOCC2)cc1N[C@@H]1CCCN(c2cccc(F)c2)C1` [I-533], the pKd is > 5.00.
On the same count and under the same terms, to `C=CC(=O)NC1CCC(c2n[nH]cc2C(=O)N[C@@H](CC(N)=O)c2cccc(Cl)c2)CC1` (stereo partly shown) [I-470] belongs < 3.70.
On the same count and under the same terms, to `N#Cc1cccc([C@H](CC(N)=O)NC(=O)c2c[nH]nc2-c2ccccc2F)c1` [I-117] belongs 4.00 to 5.00.
With `Fc1cccc(N2C[C@H](F)C[C@@H](Nc3cc(N4CCOCC4)ncn3)C2)c1` [I-135], the pKd was < 3.70.
In the case of `C[C@@]1(Nc2cc(N3CCOCC3)ccn2)CCCN(c2cccc(F)c2)C1` [I-500], the pKd was < 3.70.
Still for that read-out and setting: the result for `Cc1c(F)ccc(F)c1-c1[nH]ncc1C(=O)N[C@@H](CC(=O)N1CCC(O)C1)c1cccc(Cl)c1` (stereo partly shown) [I-883] reads > 5.00; that for `O=C(CC1CC[C@@H](Nc2cc(N3CCOCC3)ccn2)CN1c1cccc(F)c1)Nc1cccc(Cl)c1` (stereo partly shown) [I-144], < 3.70.
For the molecule `C=CC(=O)N1CCC2(CC1)CCN(c1ccnc(N[C@@H]3CCCN(c4cccc(F)c4)C3)c1)CC2` [I-642], the pKd is 4.00 to 5.00.
As for `COC(=O)Cc1ccnc(N2CCC[C@@H](Nc3cc(N4CCOCC4)ccn3)C2)c1` [I-429], the negative logarithm of the Kd (pKd) is 4.00 to 5.00.
`Cc1c(F)ccc(F)c1-c1c(C(=O)N[C@@H](CC(=O)N2CC[C@@H](O)C2)c2cccc(Cl)c2)cn(C)c1C#N` [I-1005]: the negative-log Kd (pKd) is > 5.00.
Still for that read-out and setting: to `COc1cccc(N2CCC[C@@H](Nc3cc(N4CCOCC4)ncn3)C2)c1` [I-9] belongs 3.70 to 4.00; to `NCCOCCOCCOCCOCCOCC(=O)c1[nH]cc(C(=O)N[C@@H](CC(N)=O)c2cccc(Cl)c2)c1-c1ccccc1F` [I-675], > 5.00; to `Fc1cccc(N2CC[C@@H](Nc3cc(N4CCOCC4)ncn3)C2)c1` [I-217], < 3.70.
In the case of `COCCN1CCN(c2ccnc(N[C@@H]3CCCN(c4cccc(F)c4)C3)n2)CC1` [I-320], the pKd was 4.00 to 5.00.
In the case of `NS(=O)(=O)[C@@H]1[C@H](Nc2cc(N3CCOCC3)ccn2)CCCN1c1cccc(F)c1` [I-283], the pKd was < 3.70.
In the case of `Fc1cccc(N2CCNC(Cc3cc(N4CCOCC4)ccn3)C2)c1` (stereo not shown) [I-224], the pKd is < 3.70.
Same read-out and setting: to `NC(=O)C[C@H](NC(=O)c1cn[nH]c1Cc1ccccc1)c1cccc(Cl)c1` [I-543] belongs > 5.00.
Same read-out and setting: the result for `COC(=O)c1nc(N2CCC[C@@H](Nc3cc(N4CCOCC4)ccn3)C2)ccc1C` [I-781] reads 4.00 to 5.00.
Still for that read-out and setting: to `c1ccc2cc(N3CCC[C@@H](Nc4cc(N5CCOCC5)ncn4)C3)ccc2c1` [I-389] belongs < 3.70; to `NC[C@@H]1CC[C@@H](Nc2cc(N3CCCCC3)ccn2)CN1c1cccc(F)c1` [I-1023], 4.00 to 5.00; to `NC(=O)C[C@H](NC(=O)c1c[nH]nc1-c1cc(C(=O)O)ccc1F)c1cccc(Cl)c1` [I-269], < 3.70.
Regarding `Cc1c(F)ccc(F)c1-c1c(C(=O)NC(CC(N)=O)c2cccc(Cl)c2)cn(C)c1C(=O)COCCOCCOCCOCCOCCN` (stereo not shown) [I-844], the negative logarithm of the Kd (pKd) was > 5.00.
Regarding `Fc1cc2ccccc2c(N2CCC[C@@H](Nc3cc(N4CCOCC4)ccn3)C2)n1` [I-72], the negative logarithm of the Kd (pKd) was 3.70 to 4.00.
Same read-out and setting: the result for `c1ccc(N2CCC[C@@H](Nc3cc(N4CCOCC4)ncn3)C2)cc1` [I-2] reads 3.70 to 4.00.
Turning to `Fc1cccc(N2CCC[C@@H](Nc3cc(C4=CCOCC4)[nH]n3)C2)c1` [I-609], the pKd is < 3.70.

The assay is the same for the next values; noted with them: DCAF1-3 SPR (KD), 25 °C.
Regarding `NC(=O)OCc1cc(F)cc(N2CCC[C@H]3[C@@H]2CCN3c2cc(N3CC4CC(C4)C3)ccn2)c1` [I-1035, 3-((3aS,7aS)-1-(4-(3-azabicyclo[3.1.1]heptan-3-yl)pyridin-2-yl)octahydro-4H-pyrrolo[3,2-b]pyridin-4-yl)-5-fluorobenzyl carbamate], the pKd is > 5.00.
